Results on 1 compound are retold here after patent US9592223B2, “Small molecule inhibitors of MALT1” (Cornell University, priority 2012, dated 2017).

One assay has as its system cell cycle. The experiment in a line: BrdU incorporation - DAPI staining cell cycle flow cytometry. In kind it is cell-based. Particulars: increasing concentrations. The method, then:
Cell proliferation was examined using the CFSE dilution assay by flow cytometry on viable cells at 48, 72 and 96 h. […] Trypan blue exclusion and apoptosis assessed by Annexin V^+ DAPI^− flow cytometry was measured every 48 hr for a period of 14 days.
To determine cell-cycle distribution, cells were analyzed by flow cytometry using pulse-BrdU (bromodeoxyuridine) incorporation with the APC BrdU Flow Kit (BD Pharmingen, San Jose, Calif.).
A general note: Uptake of a labelled nucleoside into DNA is a usual measure of proliferation.

Assay [1] relates to GCB-DLBCL cell lines OCI-Ly7 and OCI-Ly1. The experiment in a line: Growth inhibition, GCB-DLBCL cell lines. Particulars: increasing concentrations, single dose, 48 hr. In kind it is cell-based, human. The method, then: Endogenous MALT1 activity was evaluated by Western blotting for A20, BCL10 and CYLD; and NF-κB activation, by phospho-IκB-α and total IκB-α. Dependence on MALT1 proteolytic activity for proliferation was tested by 50[…]μM Z-VRPR-FMK treatment for 48 hr. […] The U2932 and HLY1 ABC-DLBCL cell lines harbor mutations in TAK1 and A20, which activate NF-κB signaling downstream of MALT1.
Cell proliferation was determined by ATP quantification using a luminescent method (CellTiter-Glo, Promega, Madison, Wis.) and Trypan blue dye-exclusion (Sigma, St. Louis, Mo.). Cell viability in drug-treated cells was normalized to their respective controls (fractional viability) and results are given as 1-fractional viability. […]
DLBCL cell lines were grown in exponential growth conditions during the 48 hr of treatment. Cell proliferation was determined by ATP quantification using a luminescent method (CellTiter-Glo, Promega, Madison, Wis.) and Trypan blue dye-exclusion (Sigma, St. Louis, Mo.). Luminescence was measured using the Synergy4 microplate reader (BioTek Instruments, Winooski, Vt.). Standard curves for each cell line were calculated by plotting the cell number (determined by the Trypan blue method) against their luminescence values and number of cells was calculated accordingly. […]

Assay [2] has as its target T1, MALT1 active site mutant C464A (Homo sapiens, UniProt Q9UDY8, C464A).
T1 construct: MALT1 paracaspase domain (329-728) presented a major peak at 55,988.4 Da
The experiment in a line: LC-MS covalent modification, active site mutant. In kind it is binding. The protocol:
The final results were ranked on the predicted binding free energy and the cluster size for each docking conformation.
HPLC/ESI-MS experiments were carried out on 5 μl sample at 1 mg/ml protein concentration. Separation of proteins was performed on a HP 1100 system (Hewlett Packard, Palo Alto, Calif., USA) employing a 1 mm×150 mm LC Packings column packed with POROS R1/H (Perseptive Biosystems, Foster City, Calif., USA). The column was kept at 80° C. Samples were injected onto the column using a CTC PAL autosampler (CTC, Zwingen Switzerland) fitted with a Valco model C6UW HPLC valve (Valco, Houston, Tex., USA) and a 10 μl injection loop. HPLC was controlled by MassLynx software (Micromass, Manchester, UK). UV detection was performed at 214 nm. Eluent A was water containing 0.05% TFA. Eluent B was a 1:9 mixture of water:acetonitrile containing 0.045% TFA. A gradient from 20% B to 90% B was run in 20 minutes. The flow rate was typically 60 μl/min. The total flow from the LC system was introduced into the UV detection cell prior to introduction in the ESI source. The HPLC system was controlled and the signal from the UV detector was processed using MassLynx software. […] Data were recorded and processed using MassLynx software. […]

Structures are written as SMILES.

T1 sequence (Q9UDY8 329-728 C464A): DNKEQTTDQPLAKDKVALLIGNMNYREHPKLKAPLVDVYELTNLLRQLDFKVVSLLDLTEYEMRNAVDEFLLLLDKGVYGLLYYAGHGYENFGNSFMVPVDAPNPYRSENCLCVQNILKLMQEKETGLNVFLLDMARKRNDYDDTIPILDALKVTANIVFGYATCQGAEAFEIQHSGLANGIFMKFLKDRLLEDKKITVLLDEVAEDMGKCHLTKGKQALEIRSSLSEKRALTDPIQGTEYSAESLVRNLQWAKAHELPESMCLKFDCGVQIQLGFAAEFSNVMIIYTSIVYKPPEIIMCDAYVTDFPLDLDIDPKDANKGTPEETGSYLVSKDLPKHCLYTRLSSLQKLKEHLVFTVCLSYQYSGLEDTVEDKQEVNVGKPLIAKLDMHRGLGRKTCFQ

As for `COCCOc1nc(-c2ccc(Cl)c(Cl)c2)n(-c2ccc(NC(=O)CCl)cc2)n1` [MI-2], in the assay with cell cycle, the cell cycle distribution result was “dose-dependent decrease in S phase”. Also, in assay [1], the growth inhibition result was “resistant”. Besides, the “covalent binding to MALT1 C464A” value in assay [2] was “markedly reduced covalent binding”.
